From ChEMBL document CHEMBL1201862, “PubChem BioAssay data set” (2004)
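In this assay, cells in 96-well plates receive the compound at five concentrations for 48 hours. Endpoints are linearly interpolated between the surrounding concentrations. GI50: concentration for 50% inhibition of growth.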 Calls of active or inactive are those of the source. Cut-off read from the data, not from the text of the source: active = GI50 up to about 1.1 µM and inactive = higher.

Assays:
Experiment in all cases: growth of human tumour cells (NCI), 48 h
786-0 = tested on: 786-0
A498 = tested on: A498
A549 = tested on: A549
ACHN = tested on: ACHN
BT-549 = tested on: BT-549
CAKI-1 = tested on: CAKI-1
CCRF-CEM = tested on: CCRF-CEM
COLO 205 = tested on: COLO 205
DU-145 = tested on: DU-145
EKVX = tested on: EKVX
HCT-116 = tested on: HCT-116
HCT-15 = tested on: HCT-15
HL-60 = tested on: HL-60
HOP-62 = tested on: HOP-62
HOP-92 = tested on: HOP-92
HT-29 = tested on: HT-29
Hs-578T = tested on: Hs-578T
IGROV-1 = tested on: IGROV-1
K562 = tested on: K562
KM12 = tested on: KM12
LOX IMVI = tested on: LOX IMVI
M14 = tested on: M14
MCF7 = tested on: MCF7
MDA-MB-231 = tested on: MDA-MB-231
MDA-MB-435 = tested on: MDA-MB-435
MDA-N = tested on: MDA-N
MOLT-4 = tested on: MOLT-4
Malme-3M = tested on: Malme-3M
NCI-H226 = tested on: NCI-H226
NCI-H23 = tested on: NCI-H23
NCI-H522 = tested on: NCI-H522
NCI/ADR-RES = tested on: NCI/ADR-RES
OVCAR-3 = tested on: OVCAR-3
OVCAR-4 = tested on: OVCAR-4
OVCAR-5 = tested on: OVCAR-5
OVCAR-8 = tested on: OVCAR-8
PC-3 = tested on: PC-3
RPMI-8226 = tested on: RPMI-8226
RXF 393 = tested on: RXF 393
SF-268 = tested on: SF-268
SF-295 = tested on: SF-295
SK-MEL-28 = tested on: SK-MEL-28
SK-MEL-2 = tested on: SK-MEL-2
SK-MEL-5 = tested on: SK-MEL-5
SK-OV-3 = tested on: SK-OV-3
SN12C = tested on: SN12C
SNB-19 = tested on: SNB-19
SNB-75 = tested on: SNB-75
SR = tested on: SR
SW-620 = tested on: SW-620
T47D = tested on: T47D
TK-10 = tested on: TK-10
U-251 = tested on: U-251
UACC-257 = tested on: UACC-257
UACC-62 = tested on: UACC-62
UO-31 = tested on: UO-31
HCC 2998 = tested on: HCC 2998
NCI-H460 = tested on: NCI-H460
SF-539 = tested on: SF-539

For O=S(=O)(c1ccc(Br)cc1)N1CCN(S(=O)(=O)c2ccc(Br)cc2)CC1, the GI50 (786-0) was > 100 µM (inactive), the GI50 (A498) was > 100 µM (inactive) and the GI50 (A549) was > 100 µM (inactive). For the same compound, the GI50 (ACHN) was > 100 µM (inactive), the GI50 (BT-549) was > 100 µM (inactive) and the GI50 (CAKI-1) was > 100 µM (inactive). For the same compound, the GI50 (CCRF-CEM) was > 100 µM (inactive), the GI50 (COLO 205) was > 100 µM (inactive) and the GI50 (DU-145) was > 100 µM (inactive). The GI50 (EKVX) was > 100 µM (inactive), the GI50 (HCT-116) was > 100 µM (inactive) and the GI50 (HCT-15) was greater than 100 µM. For the same compound, the GI50 (HL-60) was > 100 µM (inactive), the GI50 (HOP-62) was > 100 µM (inactive) and the GI50 (HOP-92) was > 100 µM (inactive). For the same compound, the GI50 (HT-29) was > 100 µM (inactive), the GI50 (Hs-578T) was > 100 µM (inactive) and the GI50 (IGROV-1) was > 100 µM (inactive). The GI50 (K562) was 5.87 µM (inactive), the GI50 (KM12) was > 100 µM (inactive) and the GI50 (LOX IMVI) was > 100 µM (inactive). For the same compound, the GI50 (M14) was > 100 µM (inactive), the GI50 (MCF7) was > 100 µM (inactive) and the GI50 (MDA-MB-231) was > 100 µM (inactive). The GI50 (MDA-MB-435) was > 100 µM (inactive), the GI50 (MDA-N) was > 100 µM (inactive) and the GI50 (MOLT-4) was 1.71 µM (inactive). The GI50 (Malme-3M) was > 100 µM (inactive), the GI50 (NCI-H226) was > 100 µM (inactive) and the GI50 (NCI-H23) was > 100 µM (inactive). For the same compound, the GI50 (NCI-H522) was > 100 µM (inactive), the GI50 (NCI/ADR-RES) was > 100 µM (inactive) and the GI50 (OVCAR-3) was > 100 µM (inactive). The GI50 (OVCAR-4) was > 100 µM (inactive), the GI50 (OVCAR-5) was > 100 µM (inactive) and the GI50 (OVCAR-8) was > 100 µM (inactive). For the same compound, the GI50 (PC-3) was > 100 µM (inactive), the GI50 (RPMI-8226) was > 100 µM (inactive) and the GI50 (RXF 393) was > 100 µM (inactive). The GI50 (SF-268) was > 100 µM (inactive), the GI50 (SF-295) was > 100 µM (inactive) and the GI50 (SK-MEL-28) was > 100 µM (inactive). The GI50 (SK-MEL-2) was > 100 µM (inactive), the GI50 (SK-MEL-5) was > 100 µM (inactive) and the GI50 (SK-OV-3) was > 100 µM (inactive). For the same compound, the GI50 (SN12C) was > 100 µM (inactive), the GI50 (SNB-19) was > 100 µM (inactive) and the GI50 (SNB-75) was > 100 µM (inactive). For the same compound, the GI50 (SR) was 0.0703 µM (active), the GI50 (SW-620) was > 100 µM (inactive) and the GI50 (T47D) was > 100 µM (inactive). For the same compound, the GI50 (TK-10) was > 100 µM (inactive), the GI50 (U-251) was > 100 µM (inactive) and the GI50 (UACC-257) was > 100 µM (inactive). For the same compound, the GI50 (UACC-62) was > 100 µM (inactive) and the GI50 (UO-31) was > 100 µM (inactive).
In the case of O=[N+]([O-])C1=Cc2c(O)ccc(O)c2C2OC=CC12 (configuration not stated), the GI50 (786-0) is reported as 17.9 µM (inactive), the GI50 (A498) is reported as 15.7 µM (inactive) and the GI50 (A549) is reported as 21 µM (inactive). The GI50 (ACHN) was 14.8 µM (inactive), the GI50 (BT-549) was 14.6 µM (inactive) and the GI50 (CAKI-1) was 13.1 µM (inactive). The GI50 (CCRF-CEM) was 8.89 µM (inactive), the GI50 (COLO 205) was 27 µM (inactive) and the GI50 (DU-145) was 26.4 µM (inactive). For the same compound, the GI50 (EKVX) was 19.5 µM (inactive), the GI50 (HCC 2998) was 27.4 µM (inactive) and the GI50 (HCT-116) was 15.9 µM (inactive). The GI50 (HCT-15) was 18.5 µM, the GI50 (HL-60) was 8.59 µM (inactive) and the GI50 (HOP-62) was 18.3 µM (inactive). For the same compound, the GI50 (HOP-92) was 22.3 µM (inactive), the GI50 (HT-29) was 19.6 µM (inactive) and the GI50 (Hs-578T) was 29.2 µM (inactive). The GI50 (IGROV-1) was 19.4 µM (inactive), the GI50 (K562) was 9.44 µM (inactive) and the GI50 (KM12) was 16.4 µM (inactive). For the same compound, the GI50 (LOX IMVI) was 15.7 µM (inactive), the GI50 (M14) was 18 µM (inactive) and the GI50 (MCF7) was 13.6 µM (inactive). For the same compound, the GI50 (MDA-MB-231) was 18.5 µM (inactive), the GI50 (MDA-MB-435) was 2.4 µM (inactive) and the GI50 (MDA-N) was 5.97 µM (inactive). For the same compound, the GI50 (MOLT-4) was 3.6 µM (inactive), the GI50 (NCI-H226) was 30.7 µM (inactive) and the GI50 (NCI-H23) was 15.5 µM (inactive). The GI50 (NCI-H460) was 19.7 µM (inactive), the GI50 (NCI-H522) was 3.83 µM (inactive) and the GI50 (NCI/ADR-RES) was 19.2 µM (inactive). The GI50 (OVCAR-3) was 7.94 µM (inactive), the GI50 (OVCAR-4) was 16.4 µM (inactive) and the GI50 (OVCAR-5) was 23.5 µM (inactive). The GI50 (OVCAR-8) was 21.4 µM (inactive), the GI50 (PC-3) was 14.7 µM (inactive) and the GI50 (RPMI-8226) was 34.1 µM (inactive). For the same compound, the GI50 (RXF 393) was 15.2 µM (inactive), the GI50 (SF-268) was 19.8 µM (inactive) and the GI50 (SF-295) was 16.3 µM (inactive). For the same compound, the GI50 (SF-539) was 22.2 µM (inactive), the GI50 (SK-MEL-28) was 44.8 µM (inactive) and the GI50 (SK-MEL-2) was 18.7 µM (inactive). The GI50 (SK-MEL-5) was 12.4 µM (inactive), the GI50 (SK-OV-3) was > 60.4 µM (inactive) and the GI50 (SN12C) was 18.2 µM (inactive). The GI50 (SNB-19) was 23.9 µM (inactive), the GI50 (SNB-75) was 21.6 µM (inactive) and the GI50 (SR) was 23 µM (inactive). For the same compound, the GI50 (SW-620) was 30 µM (inactive), the GI50 (T47D) was 17.4 µM (inactive) and the GI50 (TK-10) was 16.6 µM (inactive). For the same compound, the GI50 (U-251) was 16.1 µM (inactive), the GI50 (UACC-257) was 15 µM (inactive) and the GI50 (UACC-62) was 6.81 µM (inactive). For the same compound, the GI50 (UO-31) was 14.6 µM (inactive).
For CCOC(=O)CCC(NC(=O)c1ccc(OCc2nc3ccccc3n3cccc23)cc1)C(=O)OCC (configuration not stated), the GI50 (786-0) was 74.3 µM (inactive), the GI50 (A498) was > 100 µM (inactive) and the GI50 (A549) was > 100 µM (inactive). The GI50 (ACHN) was 54.5 µM (inactive), the GI50 (BT-549) was 71.9 µM (inactive) and the GI50 (CAKI-1) was > 100 µM (inactive). The GI50 (CCRF-CEM) was 4.34 µM (inactive), the GI50 (COLO 205) was > 100 µM (inactive) and the GI50 (DU-145) was 74.1 µM (inactive). For the same compound, the GI50 (EKVX) was > 100 µM (inactive), the GI50 (HCC 2998) was > 100 µM (inactive) and the GI50 (HCT-116) was 36.3 µM (inactive). For the same compound, the GI50 (HCT-15) was 50.6 µM, the GI50 (HL-60) was 11.5 µM (inactive) and the GI50 (HOP-62) was 38 µM (inactive). The GI50 (HOP-92) was 45.6 µM (inactive), the GI50 (HT-29) was 25.5 µM (inactive) and the GI50 (Hs-578T) was 64.4 µM (inactive). For the same compound, the GI50 (IGROV-1) was 31.6 µM (inactive), the GI50 (K562) was 16.5 µM (inactive) and the GI50 (KM12) was 4.83 µM (inactive). The GI50 (LOX IMVI) was 42.8 µM (inactive), the GI50 (M14) was 63.2 µM (inactive) and the GI50 (MCF7) was 39.2 µM (inactive). The GI50 (MDA-MB-231) was > 100 µM (inactive), the GI50 (MDA-MB-435) was 80.4 µM (inactive) and the GI50 (MDA-N) was > 100 µM (inactive). For the same compound, the GI50 (MOLT-4) was 1.65 µM (inactive), the GI50 (Malme-3M) was > 100 µM (inactive) and the GI50 (NCI-H226) was > 100 µM (inactive). For the same compound, the GI50 (NCI-H23) was 29.9 µM (inactive), the GI50 (NCI-H460) was > 100 µM (inactive) and the GI50 (NCI-H522) was 6.59 µM (inactive). The GI50 (NCI/ADR-RES) was > 100 µM (inactive), the GI50 (OVCAR-3) was 63.7 µM (inactive) and the GI50 (OVCAR-4) was 59.7 µM (inactive). For the same compound, the GI50 (OVCAR-5) was > 100 µM (inactive), the GI50 (OVCAR-8) was 33.5 µM (inactive) and the GI50 (PC-3) was 26.6 µM (inactive). For the same compound, the GI50 (RXF 393) was 36.6 µM (inactive), the GI50 (SF-268) was 49.3 µM (inactive) and the GI50 (SF-295) was 64.3 µM (inactive). The GI50 (SF-539) was 46.8 µM (inactive), the GI50 (SK-MEL-28) was > 100 µM (inactive) and the GI50 (SK-MEL-2) was > 100 µM (inactive). The GI50 (SK-MEL-5) was 93.3 µM (inactive), the GI50 (SK-OV-3) was > 100 µM (inactive) and the GI50 (SN12C) was > 100 µM (inactive). The GI50 (SNB-19) was 55.5 µM (inactive), the GI50 (SNB-75) was 29.2 µM (inactive) and the GI50 (SR) was 9.62 µM (inactive). The GI50 (SW-620) was 11.6 µM (inactive), the GI50 (T47D) was 20 µM (inactive) and the GI50 (TK-10) was > 100 µM (inactive). The GI50 (U-251) was 17.3 µM (inactive), the GI50 (UACC-257) was 87.5 µM (inactive) and the GI50 (UACC-62) was > 100 µM (inactive). The GI50 (UO-31) was > 100 µM (inactive).
